Among the data in patent publication US12662491B2 (Redona Therapeutics, Inc., priority 2020, dated 2026) are IC50 values, retold here.

Molecules are shown by their SMILES.

The first assay has as its target T1, Zcchc11 enzyme (Homo sapiens, UniProt Q5TAX3).
T1 construct: made in house; host or cells: HEK293 cells (Zcchc11); E. coli Rosetta II (LIN28A)
T1 sequence (Q5TAX3 212-1420): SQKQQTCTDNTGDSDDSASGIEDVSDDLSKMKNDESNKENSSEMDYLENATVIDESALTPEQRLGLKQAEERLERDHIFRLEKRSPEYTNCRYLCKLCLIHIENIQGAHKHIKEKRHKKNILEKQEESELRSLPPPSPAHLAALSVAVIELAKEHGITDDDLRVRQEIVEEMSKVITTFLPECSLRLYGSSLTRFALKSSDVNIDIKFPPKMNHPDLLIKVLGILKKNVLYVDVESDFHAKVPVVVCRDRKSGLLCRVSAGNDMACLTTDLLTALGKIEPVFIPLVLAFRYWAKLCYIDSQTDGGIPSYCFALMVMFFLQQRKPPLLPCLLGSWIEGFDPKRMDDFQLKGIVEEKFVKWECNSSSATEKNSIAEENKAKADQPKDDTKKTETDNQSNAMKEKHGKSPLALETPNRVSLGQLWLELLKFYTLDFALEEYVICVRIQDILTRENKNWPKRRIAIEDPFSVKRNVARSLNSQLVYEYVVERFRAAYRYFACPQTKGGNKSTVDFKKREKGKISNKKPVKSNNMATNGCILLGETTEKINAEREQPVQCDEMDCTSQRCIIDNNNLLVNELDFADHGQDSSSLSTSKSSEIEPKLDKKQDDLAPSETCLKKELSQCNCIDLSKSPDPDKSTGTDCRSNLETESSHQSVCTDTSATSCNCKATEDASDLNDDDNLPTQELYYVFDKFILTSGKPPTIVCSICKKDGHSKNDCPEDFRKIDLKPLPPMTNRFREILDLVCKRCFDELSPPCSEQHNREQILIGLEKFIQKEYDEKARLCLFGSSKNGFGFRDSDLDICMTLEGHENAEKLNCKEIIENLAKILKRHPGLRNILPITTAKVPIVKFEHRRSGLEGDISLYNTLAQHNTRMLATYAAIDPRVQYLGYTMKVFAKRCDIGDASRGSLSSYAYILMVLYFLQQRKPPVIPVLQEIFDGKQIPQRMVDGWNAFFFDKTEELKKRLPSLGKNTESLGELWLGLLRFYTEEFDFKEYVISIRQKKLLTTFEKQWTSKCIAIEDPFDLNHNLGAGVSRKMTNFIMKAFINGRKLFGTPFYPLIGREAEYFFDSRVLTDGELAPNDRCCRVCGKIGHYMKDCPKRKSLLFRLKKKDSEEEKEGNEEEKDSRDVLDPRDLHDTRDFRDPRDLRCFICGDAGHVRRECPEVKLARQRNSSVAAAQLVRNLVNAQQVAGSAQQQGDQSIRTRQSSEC
In words: TUTase assay (Zcchc11 assay, Lin28a-dependent polyuridylation of pre-let-7). Format: biochemical. The note with it: LIN28A 10 nM, Zcchc11 0.2 nM, 5′-fluorescein pre-let-7 miRNA 2 nM, UTP 5 uM, room temperature, 30 minutes pre-incubation; read-out: Potency Lin28a-dep Z11 IC50. In a few lines: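 Potency is measured as inhibition of LIN28A-driven U-tail addition to 2 nM pre-let-7 by 0.2 nM HEK293-derived Zcchc11 fragment with 5 uM UTP at room temperature. Tail growth appears as fluorescein quenching by an annealing rhodamine-A20 probe.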
In the case of `CN(C)CCN1CCC(n2cc(C(=O)O)c(=O)c3cc(Cl)c(N4CCC[C@@H]4COc4ncccc4Cl)cc32)C1` (stereo partly drawn) [Example 39, 6-chloro-7-[(2R)-2-{[(3-chloropyridin-2-yl)oxy]methyl}pyrrolidin-1-yl]-1-{1-[2-(dimethylamino)ethyl]pyrrolidin-3-yl}-4-oxo-1,4-dihydroquinoline-3-carboxylic acid], the half-inhibitory concentration (IC50) lay within 10000 to 50000 nM. Consider `Cc1c(F)c(N2CCC[C@@H]2COc2ccccn2)cc2c1c(=O)c(C(=O)O)cn2C1CC1` [Example 1, (R)-1-cyclopropyl-6-fluoro-5-methyl-4-oxo-7-(2-((pyridin-2-yloxy)methyl)pyrrolidin-1-yl)-1,4-dihydroquinoline-3-carboxylic acid], for which the half-inhibitory concentration (IC50) is above 50000 nM.

Staying with this assay, now noted: Lin28a-dependent Zcchc11 (Z11) TUTase activity; read-out: Potency Lin28a-dep Z11 IC50.
As to `CN(C)C1CN(c2ccc(-n3cc(C(=O)O)c(=O)c4cc(F)c(N5C[C@@H](c6cccnc6)C[C@@H]5COc5ncccc5Cl)cc43)cn2)C1` (single isomer, unassigned) [Compound 329], the IC50 is at most 1000 nM. As for `Nc1ccc(-n2cc(C(=O)O)c(=O)c3cc(F)c(N4CCC[C@@H]4COc4ncccc4F)cc32)cn1` [Compound 316, 1-(6-Aminopyridin-3-yl)-6-fluoro-7-[(2R)-2-[[(3-fluoropyridin-2-yl)oxy]methyl]pyrrolidin-1-yl]-4-oxoquinoline-3-carboxylic acid], the half-inhibitory concentration (IC50) was at most 1000 nM. On the same count and under the same terms, with `O=C(O)c1cn(-c2ccc(O)cc2)c2cc(N3CCC[C@@H]3COc3cc4cc[nH]c4cn3)c(F)cc2c1=O` [Compound 118, (R)-7-(2-(((1H-pyrrolo[2,3-c]pyridin-5-yl)oxy)methyl)pyrrolidin-1-yl)-6-fluoro-1-(4-hydroxy-phenyl)-4-oxo-1,4-dihydro-quinoline-3-carboxylic acid] the figure was at most 1000 nM; with `CC1(n2cc(C(=O)O)c(=O)c3cc(Cl)c(N4CCC[C@@H]4CN4CCOCC4)cc32)CC1` [Compound 114, (R)-6-chloro-1-(1-methylcyclo-propyl)-7-(2-(morpholino-methyl)pyrrolidin-1-yl)-4-oxo-1,4-dihydro-quinoline-3-carboxylic acid], above 50000 nM. On to `CN(C)C1CN(c2ncc(-n3cc(C(=O)O)c(=O)c4cc(Cl)c(N5CC(c6cccnc6)C[C@@H]5COc5ncccc5Cl)cc43)cn2)C1` (stereo partly drawn) [Compound 303, 6-chloro-7-((2R)-2-(((3-chloropyridin-2-yl)oxy)methyl)-4-(pyridin-3-yl)pyrrolidin-1-yl)-1-(2-(3-(dimethyl-amino)azetidin-1-yl)pyrimidin-5-yl)-4-oxo-1,4-dihydro-quinoline-3-carboxylic acid], for which the IC50 was at most 1000 nM.

Staying with this assay, now noted: Lin28a-dependent Zcchc11 (Z11) TUTase assay; read-out: Potency Lin28a-dep Z11 IC50.
In the case of `COc1ccnc(OC[C@H]2C[C@H]3C[C@H]3N2c2cc3c(cc2F)c(=O)c(C(=O)O)cn3-c2ccc(N3CC(N(C)C)C3)nc2)c1Cl` [Example 673, 7-((1R,3R,5R)-3-(((3-chloro-4-methoxypyridin-2-yl)oxy)methyl)-2-azabicyclo[3.1.0]hexan-2-yl)-1-(6-(3-(dimethylamino)azetidin-1-yl)pyridin-3-yl)-6-fluoro-4-oxo-1,4-dihydroquinoline-3-carboxylic acid], the IC50 is at most 1000 nM. On the same count and under the same terms, with `CN(C)[C@H]1CCN(c2ccc(-n3cc(C(=O)O)c(=O)c4cc(C#N)c(N5CCC[C@@H]5COc5ncccc5Cl)cc43)cn2)C1` [Example 562, 7-((R)-2-(((3-chloropyridin-2-yl)oxy)methyl)pyrrolidin-1-yl)-6-cyano-1-(6-((S)-3-(dimethylamino)pyrrolidin-1-yl)pyridin-3-yl)-4-oxo-1,4-dihydroquinoline-3-carboxylic acid] the figure was at most 1000 nM; with `COc1cnc(OC[C@H]2CCCN2c2cc3c(cc2Cl)c(=O)c(C(=O)O)cn3-c2ccc(N3CC(N(C)C)C3)nc2)c(Cl)c1` [Example 629, (R)-6-chloro-7-(2-(((3-chloro-5-methoxypyridin-2-yl)oxy)methyl)pyrrolidin-1-yl)-1-(6-(3-(dimethylamino)aztidin-1-yl)pyridin-3-yl)-4-oxo-1,4-dihydroquinoline-3-carboxylic acid], at most 1000 nM; with `COCCN(C)C1CN(c2ccc(-n3cc(C(=O)O)c(=O)c4cc(Cl)c(N5CCC[C@@H]5COc5ncccc5Cl)cc43)cn2)C1` [Example 495, (R)-6-chloro-7-(2-(((3-chloropyridin-2-yl)oxy)methyl)pyrrolidin-1-yl)-1-(6-(3-((2-methoxyethyl) (methyl)amino)azetidin-1-yl)pyridin-3-yl)-4-oxo-1,4-dihydroquinoline-3-carboxylic acid], at most 1000 nM. On the same count and under the same terms, with `Cc1ccc(F)cc1-n1cc(C(=O)O)c(=O)c2cc(F)c(N3CCC[C@@H]3COc3ccccn3)cc21` [Example 393, (R)-6-fluoro-1-(5-fluoro-2-methylphenyl)-4-oxo-7-(2-((pyridin-2-yloxy)methyl)pyrrolidin-1-yl)-1,4-dihydroquinoline-3-carboxylic acid] the figure was 1000 to 10000 nM; with `O=C(O)c1cn(-c2cnc3[nH]ncc3n2)c2cc(N3CCC[C@@H]3COc3ncccc3Cl)c(Cl)cc2c1=O` [Example 549, (R)-6-chloro-7-(2-(((3-chloropyridin-2-yl)oxy)methyl)pyrrolidin-1-yl)-4-oxo-1-(1H-pyrazolo[3,4-b]pyrazin-5-yl)-1,4-dihydroquinoline-3-carboxylic acid], at most 1000 nM.

Regarding `O=C(O)c1cn(-c2ccc(N3CC4(CNC4)C3)nc2)c2cc(N3CCC[C@@H]3COc3ncccc3Cl)c(Cl)cc2c1=O` [Example 496, (R)-1-(6-(2,6-diazaspiro[3.3]heptan-2-yl)pyridin-3-yl)-6-chloro-7-(2-(((3-chloropyridin-2-yl)oxy)methyl)pyrrolidin-1-yl)-4-oxo-1,4-dihydroquinoline-3-carboxylic acid], the 50% inhibitory concentration (IC50) is at most 1000 nM.

Turning to `CN(C)C1CN(c2ccc(-n3cc(C(=O)O)c(=O)c4cc(F)c(N5CC[C@@H](F)[C@@H]5COc5ncccc5Cl)cc43)cn2)C1` [Example 671, 7-((2S,3R)-2-(((3-chloropyridin-2-yl)oxy)methyl)-3-fluoropyrrolidin-1-yl)-1-(6-(3-(dimethylamino)azetidin-1-yl)pyridin-3-yl)-6-fluoro-4-oxo-1,4-dihydroquinoline-3-carboxylic acid], the IC50 was at most 1000 nM. For the molecule `CC(c1ccccc1)n1cc(C(=O)O)c(=O)c2cc(Cl)c(N3CCC[C@@H]3COc3ncccc3Cl)cc21` (stereo partly drawn) [Example 583, 6-chloro-7-((R)-2-(((3-chloropyridin-2-yl)oxy)methyl)pyrrolidin-1-yl)-4-oxo-1-(1-phentylethyl)-1,4-dihydroquinoline-3-carboxylic acid], the IC50 fell in the range of 1000 to 10000 nM. With `O=C(O)c1cn(-c2cncnc2)c2cc(N3CCC[C@@H]3COc3ncccc3Cl)c(Cl)cc2c1=O` [Example 497], the half-maximal inhibitory concentration (IC50) is at most 1000 nM. Same read-out and setting: with `CN(C)CCNc1cnc(-n2cc(C(=O)O)c(=O)c3cc(Cl)c(N4CCC[C@@H]4COc4ncccc4Cl)cc32)cn1` [Example 492, (R)-6-chloro-7-(2-(((3-chloropyridin-2-yl)oxy)methyl)pyrrolidin-1-yl)-1-(5-((2-(dimethylamino)ethyl)amino)pyrazin-2-yl)-4-oxo-1,4-dihydroquinoline-3-carboxylic acid] the figure was at most 1000 nM. Same read-out and setting: with `Cn1cc(-n2cc(C(=O)O)c(=O)c3cc(Cl)c(N4CCC[C@@H]4COc4ncccc4Cl)cc32)cn1` [Example 436, (R)-6-chloro-7-(2-(((3-chloropyridin-2-yl)oxy)methyl)pyrrolidin-1-yl)-1-(1-methyl-1H-pyrazol-4-yl)-4-oxo-1,4-dihydroquinoline-3-carboxylic acid] the figure was at most 1000 nM; with `CN(C)C1CN(c2ccc(-n3cc(C(=O)O)c(=O)c4cc(Cl)c(N5Cc6cccnc6[C@@H]5COc5ncccc5Cl)cc43)cn2)C1` [Example 597, (R)-6-chloro-7-(7-(((3-chloropyridin-2-yl)oxy)methyl)-5,7-dihydro-6H-pyrrolo[3,4-b]pyridin-6-yl)-1-(6-(3-(dimethylamino)azetidin-1-yl)pyridin-3-yl)-4-oxo-1,4-dihydroquinoline-3-carboxylic acid], at most 1000 nM.

As a reminder, the IC50 is the concentration that inhibits the measured activity by half.
